Experimental data from PubChem BioAssay AID192 (DTP/NCI, 2004).
Several values for one entry are separate records, joined by “and”; a condition that tells them apart may be missing. Identical values can stand only once. Toxic doses and inconclusive results are not listed.

Tested on: BDF1 mice, B16 melanoma ip, median survival T/C
Assay: NCI In Vivo Anticancer Drug Screen. Data for tumor model B16 Melanoma (intraperitoneal) in B6D2F1 (BDF1) mice
Settings: endpoint: median survival time, higher = longer survival
Summary of the method: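 Antitumor activity is assessed in mice bearing a transplanted tumor, with survival or tumor size compared against vehicle-dosed controls and expressed as T/C.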

[1] = dose: 3.12 mg/kg/injection, schedule: Q01DX009 (ip), vehicle: Klucel (hydroxypropylcellulose) (HPC)
[2] = dose: 6.25 mg/kg/injection, schedule: Q01DX009 (ip), vehicle: Klucel (hydroxypropylcellulose) (HPC)
[3] = dose: 12.5 mg/kg/injection, schedule: Q01DX009 (ip), vehicle: Klucel (hydroxypropylcellulose) (HPC)
[4] = dose: 25.0 mg/kg/injection, schedule: Q01DX009 (ip), vehicle: Klucel (hydroxypropylcellulose) (HPC)
[5] = dose: 50.0 mg/kg/injection, schedule: Q01DX009 (ip), vehicle: Klucel (hydroxypropylcellulose) (HPC)
[6] = dose: 100.0 mg/kg/injection, schedule: Q01DX009 (ip), vehicle: Klucel (hydroxypropylcellulose) (HPC)
[7] = dose: 200.0 mg/kg/injection, schedule: Q01DX009 (ip), vehicle: Klucel (hydroxypropylcellulose) (HPC)
[8] = dose: 400.0 mg/kg/injection, schedule: Q01DX009 (ip), vehicle: Klucel (hydroxypropylcellulose) (HPC)
[9] = dose: 50.0 mg/kg/injection, schedule: Q01DX009 (ip), vehicle: saline sonified
[10] = dose: 100.0 mg/kg/injection, schedule: Q01DX009 (ip), vehicle: saline sonified
[11] = dose: 100.0 mg/kg/injection, schedule: Q01DX009 (ip), vehicle: saline with Tween-80
[12] = dose: 100.0 mg/kg/injection, schedule: Q01DX009 (ip), vehicle: saline
[13] = dose: 200.0 mg/kg/injection, schedule: Q01DX009 (ip), vehicle: saline
[14] = dose: 400.0 mg/kg/injection, schedule: Q01DX009 (ip), vehicle: saline
[15] = dose: 12.5 mg/kg/injection, schedule: Q01DX009 (ip), vehicle: saline with Tween-80
[16] = dose: 12.5 mg/kg/injection, schedule: Q01DX009 (ip), vehicle: saline
[17] = dose: 25.0 mg/kg/injection, schedule: Q01DX009 (ip), vehicle: saline
[18] = dose: 50.0 mg/kg/injection, schedule: Q01DX009 (ip), vehicle: saline

With O=C1N(Cl)C(=O)C(c2ccc(Cl)cc2)(c2ccc(Cl)cc2)N1Cl the T/C (dose: 1.56 mg/kg/injection, schedule: Q01DX009 (ip), vehicle: Klucel (hydroxypropylcellulose) (HPC)) was 104 % of control, the T/C [1] was 96 % of control and the T/C [2] was 104 % of control. The T/C [3] was 104 % of control, the T/C [4] was 114 % of control and 101 % of control and the T/C (dose: 25.0 mg/kg/injection, schedule: Q02DX009 (ip), vehicle: Klucel (hydroxypropylcellulose) (HPC)) was 103 % of control. The T/C [5] was 112 % of control, the T/C (dose: 50.0 mg/kg/injection, schedule: Q02DX009 (ip), vehicle: Klucel (hydroxypropylcellulose) (HPC)) was 99 % of control and the T/C [6] was 118 % of control. For the same compound, the T/C (dose: 100.0 mg/kg/injection, schedule: Q02DX009 (ip), vehicle: Klucel (hydroxypropylcellulose) (HPC)) was 106 % of control, the T/C [7] was 117 % of control and the T/C (dose: 200.0 mg/kg/injection, schedule: Q02DX009 (ip), vehicle: Klucel (hydroxypropylcellulose) (HPC)) was 96 % of control. For the same compound, the T/C [8] was 118 % of control.

With c1ccc2c(NCCCCCCCCNc3c4ccccc4nc4ccccc34)c3ccccc3nc2c1 the T/C (dose: 5.0 mg/kg/injection, schedule: Q01DX009 (ip), vehicle: Klucel (hydroxypropylcellulose) (HPC)) was 151 % of control and 159 % of control, the T/C (dose: 10.0 mg/kg/injection, schedule: Q01DX009 (ip), vehicle: Klucel (hydroxypropylcellulose) (HPC)) was 164 % of control and the T/C (dose: 20.0 mg/kg/injection, schedule: Q01DX009 (ip), vehicle: Klucel (hydroxypropylcellulose) (HPC)) was 156 % of control.

In the case of CC(NC(=O)OCc1ccccc1)C(=O)O (configuration not stated), the T/C [1] is reported as 97 % of control, the T/C [2] is reported as 88 % of control and the T/C [3] is reported as 94 % of control. For the same compound, the T/C [4] was 88 % of control and the T/C (dose: 100.0 mg/kg/injection, schedule: Q04DX003 (ip), vehicle: Klucel (hydroxypropylcellulose) (HPC)) was 88 % of control.

COc1ccc(OC)c(/C=C/c2ccnc3ccccc23)c1 was tested, and the T/C [9] was 113 % of control, the T/C [10] was 107 % of control and the T/C (dose: 200.0 mg/kg/injection, schedule: Q01DX009 (ip), vehicle: saline sonified) was 113 % of control.

With O=C(O)CNC(=O)c1ccc([N+](=O)[O-])cc1 the T/C [11] was 89 % of control.

For CC(=O)Oc1ccc(C)cc1, the T/C [5] was 103 % of control, the T/C [6] was 112 % of control and the T/C [7] was 103 % of control.

With CCN(C=O)CC the T/C [12] was 117 % of control, the T/C [13] was 115 % of control and the T/C [14] was 107 % of control.

O=S(c1ccccc1)c1c(Cl)c(Cl)nc(Cl)c1Cl (configuration not stated) was tested, and the T/C [2] was 94 % of control and the T/C [3] was 100 % of control.

CC(C)(C)c1cc([N+](=O)[O-])cc([N+](=O)[O-])c1O was tested, and the T/C (dose: 1.56 mg/kg/injection, schedule: Q01DX009 (ip), vehicle: saline with Tween-80) was 99 % of control, the T/C (dose: 3.13 mg/kg/injection, schedule: Q01DX009 (ip), vehicle: saline with Tween-80) was 96 % of control and the T/C (dose: 6.25 mg/kg/injection, schedule: Q01DX009 (ip), vehicle: saline with Tween-80) was 93 % of control. For the same compound, the T/C [15] was 89 % of control.

With COc1cc2ccc3c[n+](C)ccc3c2cc1OC the T/C (dose: 12.5 mg/kg/injection, schedule: Q01DX009 (ip), vehicle: water) was 101 % of control, the T/C (dose: 25.0 mg/kg/injection, schedule: Q01DX009 (ip), vehicle: water) was 106 % of control and the T/C (dose: 50.0 mg/kg/injection, schedule: Q01DX009 (ip), vehicle: water) was 95 % of control. The T/C (dose: 100.0 mg/kg/injection, schedule: Q01DX009 (ip), vehicle: water) was 101 % of control.

In the case of Cc1ccccc1N=Cc1ccc2c(c1)OCO2, the T/C [5] is reported as 102 % of control, the T/C [6] is reported as 95 % of control and the T/C [7] is reported as 100 % of control.

With COc1ccc2c(c1)C(OC)C1c3c(cc4c(c3-2)OCO4)CCN1C (configuration not stated) the T/C (dose: 1.0 mg/kg/injection, schedule: Q01DX009 (ip), vehicle: acid diluted with saline) was 123 % of control and the T/C (dose: 2.0 mg/kg/injection, schedule: Q01DX009 (ip), vehicle: acid diluted with saline) was 89 % of control.

For Cc1cc(C)c(-c2c(C)cc(C)c(N)c2C)c(C)c1N, the T/C (dose: 75.0 mg/kg/injection, schedule: Q04DX003 (ip), vehicle: Klucel (hydroxypropylcellulose) (HPC)) was 91 % of control.

For CCCCNC(C)(C)COC(=O)/C=C/c1ccc(OCCCC)cc1, the T/C (dose: 12.5 mg/kg/injection, schedule: Q01DX009 (ip), vehicle: saline sonified) was 97 % of control, the T/C (dose: 25.0 mg/kg/injection, schedule: Q01DX009 (ip), vehicle: saline sonified) was 97 % of control and the T/C [9] was 104 % of control. For the same compound, the T/C [10] was 93 % of control.

For CC(=O)CC(=O)NCc1cccc(C)n1, the T/C [12] was 106 % of control, the T/C [13] was 111 % of control and the T/C [14] was 112 % of control.

With CCOc1ccc(OCC)c(NC(=O)c2ccccc2)c1 the T/C [11] was 114 % of control, the T/C (dose: 200.0 mg/kg/injection, schedule: Q01DX009 (ip), vehicle: saline with Tween-80) was 110 % of control and the T/C (dose: 400.0 mg/kg/injection, schedule: Q01DX009 (ip), vehicle: saline with Tween-80) was 110 % of control.

O=S(=O)(O)C(O)c1cccnc1 (configuration not stated) was tested, and the T/C [15] was 102 % of control, the T/C (dose: 25.0 mg/kg/injection, schedule: Q01DX009 (ip), vehicle: saline with Tween-80) was 86 % of control and the T/C (dose: 50.0 mg/kg/injection, schedule: Q01DX009 (ip), vehicle: saline with Tween-80) was 89 % of control.

With CN(C)C(=O)c1cccc(NC(=O)NCc2cccc(N3C(N)=NC(N)=NC3(C)C)c2)c1 the T/C [16] was 107 % of control, the T/C [17] was 117 % of control and the T/C [18] was 102 % of control.

In the case of CN1C(=O)CN=C(c2ccccc2)c2cc(Cl)ccc21, the T/C (dose: 0.02 mg/kg/injection, schedule: Q01DX009 (ip), vehicle: Klucel (hydroxypropylcellulose) (HPC)) is reported as 95 % of control, the T/C (dose: 0.03 mg/kg/injection, schedule: Q01DX009 (ip), vehicle: saline) is reported as 100 % of control and the T/C (dose: 0.04 mg/kg/injection, schedule: Q01DX009 (ip), vehicle: Klucel (hydroxypropylcellulose) (HPC)) is reported as 233 % of control. For the same compound, the T/C (dose: 0.05 mg/kg/injection, schedule: Q01DX009 (ip), vehicle: saline) was 97 % of control, the T/C (dose: 0.09 mg/kg/injection, schedule: Q01DX009 (ip), vehicle: Klucel (hydroxypropylcellulose) (HPC)) was 104 % of control and the T/C (dose: 0.1 mg/kg/injection, schedule: Q01DX009 (ip), vehicle: saline) was 91 % of control. For the same compound, the T/C (dose: 0.19 mg/kg/injection, schedule: Q01DX009 (ip), vehicle: Klucel (hydroxypropylcellulose) (HPC)) was 109 % of control, the T/C (dose: 0.39 mg/kg/injection, schedule: Q01DX009 (ip), vehicle: Klucel (hydroxypropylcellulose) (HPC)) was 91 % of control and 105 % of control and the T/C (dose: 5.0 micrograms/kg/injection, schedule: Q01DX009 (ip), vehicle: Klucel (hydroxypropylcellulose) (HPC)) was 94 % of control. The T/C (dose: 10.0 micrograms/kg/injection, schedule: Q01DX009 (ip), vehicle: Klucel (hydroxypropylcellulose) (HPC)) was 93 % of control, the T/C (dose: 20.0 micrograms/kg/injection, schedule: Q01DX009 (ip), vehicle: Klucel (hydroxypropylcellulose) (HPC)) was 86 % of control and the T/C (dose: 40.0 micrograms/kg/injection, schedule: Q01DX009 (ip), vehicle: Klucel (hydroxypropylcellulose) (HPC)) was 94 % of control. The T/C (dose: 90.0 micrograms/kg/injection, schedule: Q01DX009 (ip), vehicle: Klucel (hydroxypropylcellulose) (HPC)) was 92 % of control.

Oc1c(CNCCCN2CCCC2)cc(Cl)c2cccnc12 was tested, and the T/C [16] was 94 % of control and 95 % of control and 106 % of control, the T/C [17] was 93 % of control and 98 % of control and 102 % of control and the T/C [18] was 94 % of control and 97 % of control and 98 % of control. The T/C [12] was 103 % of control and 108 % of control and 109 % of control.

With CC(=O)CC(=O)Nc1cccc(C)c1 the T/C [6] was 105 % of control, the T/C [7] was 100 % of control and the T/C [8] was 92 % of control.

CCCC(=O)NC1CCc2cc(OC)c(OC)c(OC)c2-c2ccc(OC)c(=O)cc21 (configuration not stated) was tested, and the T/C (dose: 0.15 mg/kg/injection, schedule: Q01DX009 (ip), vehicle: Klucel (hydroxypropylcellulose) (HPC)) was 115 % of control, the T/C (dose: 0.31 mg/kg/injection, schedule: Q01DX009 (ip), vehicle: Klucel (hydroxypropylcellulose) (HPC)) was 112 % of control and the T/C (dose: 0.63 mg/kg/injection, schedule: Q01DX009 (ip), vehicle: Klucel (hydroxypropylcellulose) (HPC)) was 119 % of control. The T/C (dose: 2.5 mg/kg/injection, schedule: Q01DX009 (ip), vehicle: Klucel (hydroxypropylcellulose) (HPC)) was 123 % of control.

COc1ccc(CCN2CC(=O)NC(=O)C2)cc1OC was tested, and the T/C [4] was 97 % of control, the T/C [5] was 91 % of control and the T/C [6] was 88 % of control. For the same compound, the T/C [7] was 94 % of control and the T/C [8] was 91 % of control.

With CC(CCc1ccccc1)NC(C)C(O)c1ccc(O)cc1 (configuration not stated) the T/C [2] was 93 % of control, the T/C [3] was 105 % of control and the T/C [4] was 94 % of control. For the same compound, the T/C [5] was 105 % of control and the T/C [6] was 115 % of control.
